Source: US20090054259A1, “METHODS FOR INDUCING COMPLETE APOPTOSIS OF LIVER CELLS EXPRESSING HBCHI PROTEIN AND SCREENING FOR SUBSTANCES OR GENES THAT INHIBIT THE APOPTOSIS” (priority 2004, published 2009)
Where two headings read alike, the source gives them in different places.

Experiments:
Chang X31 cells [1] = assay type: cell-based, human
NF-κB = settings: through inhibiting the phosphorylation of IκB; Wahl et al. 1998; cited from earlier work
Chang V9 cells [2] = test: Induction of apoptosis by sulfasalazine in the control liver cell line not expressing HBx protein; assay type: cell-based, human; settings: for extent of apoptosis: 120 h
Chang X31 cells [3] = test: DAPI staining, morphology of apoptosis; assay type: cell-based, human; settings: 1.3 mM sulfasalazine, 72 hours
Description: (§1) Chang X 31 and Chang V9 cells were split on 6-well plates, and […], treated with 1.3 mM sulfasalazine.
(§2) 72 hours after the sulfasalzine treatment, DAPI staining was performed to observe apoptosis. The cells were directly fixed in the cold solution consisting of 1% […] and 0.2% glutaraldehyde for 5 min, washed twice with PBS and then stained with 1 mg/ml of DAPI solution (Sigma, USA). The cells were incubated for 5 hours in dark.
(§3) The stained cells were examined using a fluorescent microscopy.

Chang V9 cells [4] = test: DAPI staining, morphology of apoptosis; assay type: cell-based, human; settings: 1.3 mM sulfasalazine, 72 hours
Description: as §1, §2, §3

Chang X31 cells [5] = assay type: cell-based, human; settings: for extent of apoptosis: 120 h

N[C@@H](CCC(=O)N[C@@H](CS)C(=O)NCC(=O)O)C(=O)O [GSH, glutathione]
apoptosis (Chang X31 cells [1]): only partial apoptosis | inhibition of the apoptosis of the liver cell line (conclusion) (Chang X31 cells [1]): effective in inhibiting the apoptosis

CC(=O)N[C@@H](CS)C(=O)O [NAC, N-acetyl-L-cystein]
apoptosis (Chang X31 cells [1]; 2 mM GSH (group I), 1 mM NAC (group II) before 1.3 mM sulfasalazine, 120 h, crystal violet): only partial apoptosis | inhibition of the apoptosis of the liver cell line (conclusion) (Chang X31 cells [1]; 2 mM GSH, 1 mM NAC, 0.5 mM STS, […]): effective in inhibiting the apoptosis

CN[C@@H]1C[C@H]2O[C@@](C)([C@@H]1OC)n1c3ccccc3c3c4c(c5c6ccccc6n2c5c31)C(=O)NC4 [STS, staurosporine]
apoptosis (Chang X31 cells [1]; 0.5 mM STS (group III) before 1.3 mM sulfasalazine, 120 h, crystal violet): 100%

O=C(O)c1cc(/N=N/c2ccc(S(=O)(=O)Nc3ccccn3)cc2)ccc1O [sulfasalazine]
effect on TNF-α-induced nuclear translocation of NF-κB (NF-κB): prevents TNF-α-induced nuclear translocation of NF-κB | survival rate (Chang V9 cells [2]; 1.0 mM sulfasalazine, re-treated at 48 h, read 72 h after re-treatment (120 h)): at least 50% | extent of apoptosis (Chang V9 cells [2]; 1.3 mM sulfasalazine): 10% | extent of apoptosis (Chang V9 cells [2]; at least 1.5 mM sulfasalazine): at least 20% | typical features of apoptosis (nuclear condensation, shrinkage, fragmentation) (Chang X31 cells [3]): observed in only Chang X 31 | typical features of apoptosis (nuclear condensation, shrinkage, fragmentation) (Chang V9 cells [4]): not in Chang V9 | survival rate (Chang X31 cells [5]; 1.0 mM sulfasalazine, re-treated at 48 h, read 72 h after re-treatment (120 h), […]): at least 50% | extent of apoptosis (Chang X31 cells [5]; 1.3 mM sulfasalazine, […]): 100% | extent of apoptosis (Chang X31 cells [5]; at least 1.5 mM sulfasalazine, […]): 100% | concentration inducing complete apoptosis of Chang X31 cells (Chang X31 cells [5]; complete (100%) apoptosis within 120 hours): at least 1.3 mM
